Here are results for three molecules from patent publication US20220062380A1 (priority 2018, published 2022).

Where no end group is shown, it is not given here.

The test system of one assay is plasma corticosterone. The assay can be described thus: Plasma corticosterone levels in the Saelens precipitated withdrawal model, Protocol B (Example 3). To be noted: morphine-treated mice, naloxone-precipitated withdrawal; for plasma corticosterone levels: TCAP-1 250 nmole/kg vs. CP154,526 5, 20, 50 mg/kg. Format: in vivo, mouse. On the procedure: Two hours after the 11 a.m. injections, at 1 p.m., all mice received an intraperitoneal (“i.p.”) injection of Naloxone 2.5 mg/kg), baseline blood samples were taken and then they were immediately placed individually in an observation area and video recorded 20 minutes. The number of jumps (lifting of all feet off the ground) were recorded for 20 minutes. A second set of blood samples were taken post-jumps (about 30 minutes after the naloxone administration.
The same protocol as in Protocol A was followed with the exception that on day 2, there were three Group 3 mice (10 per group) which were administered: 5 mg/kg, 20 mg/kg or 50 mg/kg of the CRH antagonist CP154,526.

The subject of assay [1] is Swiss Webster mice. The assay is described as follows: Saelens drug-precipitated withdrawal in the mouse, TCAP-1 pre-morphine (Example 1). The class given is in vivo.
Assay [2] deals with Swiss Webster mice. The assay is described as follows: Saelens precipitated withdrawal test, CRH antagonist vs. TCAP-1, Protocol A (Example 3). The class given is in vivo, mouse. To be noted: TCAP-1 250 nmole/kg per time point vs. CRH antagonist 20 mg/kg per time point; morphine-treated mice; naloxone 2.5 mg/kg i.p.
The subject of assay [3] is Swiss Webster mice. The assay is described as follows: Saelens precipitated withdrawal test, single dose TCAP-1 post-morphine (Example 2). The class given is in vivo, mouse. The settings on record: Group 4: TCAP-1 500 nmole/kg s.c. single dose post-morphine; naloxone 10 mg/kg i.p.
Assay [4] relates to Swiss Webster mice. The assay is described as follows: Saelens precipitated withdrawal test, CRH antagonist dose response vs. TCAP-1, Protocol B, jumps (Example 3). Format: in vivo, mouse. To be noted: TCAP-1 250 nmole/kg vs. CP154,526 5, 20, 50 mg/kg; morphine-treated mice; naloxone 2.5 mg/kg i.p.

As for `CCCCN(CC)c1nc(C)nc2c1c(C)cn2-c1c(C)cc(C)cc1C` [CP154,526], in the assay with plasma corticosterone, the plasma corticosterone levels entry is “still had an effect” and the “dose needed to approach TCAP-1 250 nmole/kg effect on corticosterone levels” value was “at least 50 mg/kg”.

`C[C@]12N[C@H](Cc3ccccc31)c1ccccc12` [MK801, reference compound]: the “Mean # Jumps over 20 Minutes” value in the assay on Swiss Webster mice [1] (Group 8: saline days 1-3, saline day 4-5, MK801 on day 5, no morphine, no naloxone, n = 4) amounted to 0.

Consider “Teneurin C-Terminal Associated Peptide-1 (QQLLGTGRVQGYDGYFVLSVEQYLELSDSANNIHFMRQSEI-NH2) [TCAP-1, mouse TCAP-1 in some experiments]”, for which the “number of jumps/20 minutes after naloxone” value in the assay with Swiss Webster mice [2] is “much more effective and at lower dosages in significantly lowering the number of jumps”. For the same molecule, the “Mean # Jumps over 20 Minutes” value stood at 47 with Swiss Webster mice [1] (TCAP-1 10 nmole/kg s.c. days 1-3, morphine 32 mg/kg i.p. days 4-5, naloxone 10 mg/kg i.p., n = 3); 47 in the assay on Swiss Webster mice [1] (TCAP-1 25 nmole/kg s.c. days 1-3, morphine 32 mg/kg i.p. days 4-5, naloxone 10 mg/kg i.p., n = 9); 42 in the assay with Swiss Webster mice [1] (TCAP-1 50 nmole/kg s.c. days 1-3, morphine 32 mg/kg i.p. days 4-5, naloxone 10 mg/kg i.p., n = 9); 32 in the assay on Swiss Webster mice [1] (TCAP-1 100 nmole/kg s.c. days 1-3, morphine 32 mg/kg i.p. days 4-5, naloxone 10 mg/kg i.p., n = 9); 16 in the assay on Swiss Webster mice [1] (TCAP-1 250 nmole/kg s.c. days 1-3, morphine 32 mg/kg i.p. days 4-5, naloxone 10 mg/kg i.p., n = 9). In addition, in the assay on Swiss Webster mice [1] (TCAP-1 10-250 nmole/kg pre-morphine vs. morphine alone), the “jump rate after naloxone-precipitated morphine withdrawal” value is reported as “reduced jump rates in a dose dependent manner”. The “number of jumps in 20 minutes after naloxone” value in the assay with Swiss Webster mice [3] is “significantly reduced the number of jumps”. The “number of jumps/20 minutes” value with Swiss Webster mice [4] was “more effective in reducing the number of jumps/20 minutes”. Further, the plasma corticosterone levels result with plasma corticosterone is “more effective in reducing plasma corticosterone levels in the mice at lower dosage levels”.
